“And” between values parts separate entries of the source, which are not always exact repeats. Equal values may be shown once. Toxic doses and inconclusive results are not listed.
Test system: P388 leukemia ip, CD2F1 mice, survival T/C
Assay: NCI In Vivo Anticancer Drug Screen. Data for tumor model P388 Leukemia (intraperitoneal) in CD2F1 (CDF1) mice
Details: endpoint: median survival time, higher = longer survival
Procedure, shortened: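 Mice carrying the transplanted tumor received test compound or vehicle. Survival was recorded in each group, and the value is the treated-group measurement divided by that of the vehicle-treated control group.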

[1] = dose: 100.0 mg/kg/injection, schedule: Q01DX009 (ip), vehicle: saline with Tween-80
[2] = dose: 60.0 mg/kg/injection, schedule: Q01DX005 (ip), vehicle: Klucel (hydroxypropylcellulose) (HPC)
[3] = dose: 120.0 mg/kg/injection, schedule: Q01DX005 (ip), vehicle: Klucel (hydroxypropylcellulose) (HPC)
[4] = dose: 240.0 mg/kg/injection, schedule: Q01DX005 (ip), vehicle: Klucel (hydroxypropylcellulose) (HPC)
[5] = dose: 50.0 mg/kg/injection, schedule: Q01DX005 (ip), vehicle: saline with Tween-80
[6] = dose: 100.0 mg/kg/injection, schedule: Q01DX005 (ip), vehicle: saline with Tween-80
[7] = dose: 200.0 mg/kg/injection, schedule: Q01DX005 (ip), vehicle: saline with Tween-80
[8] = dose: 50.0 mg/kg/injection, schedule: Q01DX009 (ip), vehicle: saline with Tween-80
[9] = dose: 50.0 mg/kg/injection, schedule: Q01DX005 (ip), vehicle: Klucel (hydroxypropylcellulose) (HPC)
[10] = dose: 100.0 mg/kg/injection, schedule: Q01DX005 (ip), vehicle: Klucel (hydroxypropylcellulose) (HPC)
[11] = dose: 200.0 mg/kg/injection, schedule: Q01DX005 (ip), vehicle: Klucel (hydroxypropylcellulose) (HPC)
[12] = dose: 60.0 mg/kg/injection, schedule: Q01DX005 (ip), vehicle: saline with Tween-80
[13] = dose: 120.0 mg/kg/injection, schedule: Q01DX005 (ip), vehicle: saline with Tween-80
[14] = dose: 240.0 mg/kg/injection, schedule: Q01DX005 (ip), vehicle: saline with Tween-80
[15] = dose: 50.0 mg/kg/injection, schedule: Q01DX009 (ip), vehicle: Klucel (hydroxypropylcellulose) (HPC)
[16] = dose: 100.0 mg/kg/injection, schedule: Q01DX009 (ip), vehicle: Klucel (hydroxypropylcellulose) (HPC)
[17] = dose: 200.0 mg/kg/injection, schedule: Q01DX009 (ip), vehicle: Klucel (hydroxypropylcellulose) (HPC)
[18] = dose: 400.0 mg/kg/injection, schedule: Q01DX009 (ip), vehicle: Klucel (hydroxypropylcellulose) (HPC)
[19] = dose: 100.0 mg/kg/injection, schedule: Q04DX003 (ip), vehicle: Klucel (hydroxypropylcellulose) (HPC)
[20] = dose: 200.0 mg/kg/injection, schedule: Q04DX003 (ip), vehicle: Klucel (hydroxypropylcellulose) (HPC)
[21] = dose: 400.0 mg/kg/injection, schedule: Q04DX003 (ip), vehicle: Klucel (hydroxypropylcellulose) (HPC)

## CN(CCN(C)C(=O)CCOS(C)(=O)=O)C(=O)CCOS(C)(=O)=O
dose: 12.5 mg/kg/injection, schedule: Q01DX009 (ip), vehicle: saline
  T/C: 151 % of control
dose: 25.0 mg/kg/injection, schedule: Q01DX009 (ip), vehicle: saline
  T/C: 175 % of control
dose: 50.0 mg/kg/injection, schedule: Q01DX009 (ip), vehicle: saline
  T/C: 192 % of control and 210 % of control
dose: 100.0 mg/kg/injection, schedule: Q01DX009 (ip), vehicle: saline
  T/C: 260 % of control and 290 % of control
dose: 200.0 mg/kg/injection, schedule: Q01DX009 (ip), vehicle: saline
  T/C: 116 % of control and 297 % of control

## Cc1nc(N)nc(N)c1N1CCN(c2ccc(C(=O)NC(C(=O)O)C(=O)O)cc2)CC1
dose: 3.75 mg/kg/injection, schedule: Q01DX005 (ip), vehicle: Klucel + Tween-80
  T/C: 184 % of control
dose: 7.5 mg/kg/injection, schedule: Q01DX005 (ip), vehicle: Klucel + Tween-80
  T/C: 215 % of control
dose: 15.0 mg/kg/injection, schedule: Q01DX005 (ip), vehicle: Klucel + Tween-80
  T/C: 87 % of control

## CCOC(=O)C(C(=O)OCC)c1c[n+]([O-])c2ccccc2c1[N+](=O)[O-]
[1]
  T/C: 104 % of control
dose: 100.0 mg/kg/injection, schedule: Q04DX003 (ip), vehicle: saline with Tween-80
  T/C: 109 % of control
dose: 200.0 mg/kg/injection, schedule: Q01DX009 (ip), vehicle: saline with Tween-80
  T/C: 100 % of control
dose: 200.0 mg/kg/injection, schedule: Q04DX003 (ip), vehicle: saline with Tween-80
  T/C: 104 % of control
dose: 400.0 mg/kg/injection, schedule: Q01DX009 (ip), vehicle: saline with Tween-80
  T/C: 100 % of control
dose: 400.0 mg/kg/injection, schedule: Q04DX003 (ip), vehicle: saline with Tween-80
  T/C: 95 % of control

## CCc1ncc(C(C)(O)c2ccccc2)n1Cc1ccccc1 (stereo not given)
[2]
  T/C: 100 % of control
[3]
  T/C: 102 % of control
[4]
  T/C: 99 % of control

## COC(=O)c1ccc(O)cc1
dose: 12.5 mg/kg/injection, schedule: Q01DX005 (ip), vehicle: saline with Tween-80
  T/C: 98 % of control
dose: 25.0 mg/kg/injection, schedule: Q01DX005 (ip), vehicle: saline with Tween-80
  T/C: 99 % of control
[5]
  T/C: 100 % of control
[6]
  T/C: 100 % of control
[7]
  T/C: 105 % of control
dose: 400.0 mg/kg/injection, schedule: Q01DX005 (ip), vehicle: saline with Tween-80
  T/C: 100 % of control

## Cc1cccc(NC(=O)CCc2ccc(N3C(N)=NC(N)=NC3(C)C)cc2)c1
[8]
  T/C: 118 % of control
dose: 50.0 mg/kg/injection, schedule: Q04DX003 (ip), vehicle: saline sonified
  T/C: 118 % of control
dose: 100.0 mg/kg/injection, schedule: Q04DX003 (ip), vehicle: saline sonified
  T/C: 113 % of control
dose: 132.0 mg/kg/injection, schedule: Q01DX009 (ip), vehicle: saline with Tween-80
  T/C: 118 % of control
dose: 200.0 mg/kg/injection, schedule: Q04DX003 (ip), vehicle: saline sonified
  T/C: 118 % of control

## Oc1ccccc1C=Nc1ccccc1N=Cc1ccccc1O.[Cu]
[9]
  T/C: 99 % of control
[10]
  T/C: 97 % of control
[11]
  T/C: 90 % of control

## Cn1cnc([N+](=O)[O-])c1N
dose: 12.5 mg/kg/injection, schedule: Q01DX009 (ip), vehicle: saline with Tween-80
  T/C: 106 % of control
dose: 25.0 mg/kg/injection, schedule: Q01DX009 (ip), vehicle: saline with Tween-80
  T/C: 119 % of control
[8]
  T/C: 103 % of control
[1]
  T/C: 106 % of control

## O=S(=O)(OC1=C/[C@H](S(=O)(=O)c2ccccc2)/C=C\[C@H](S(=O)(=O)c2ccccc2)/C=C\1)c1ccccc1
[12]
  T/C: 97 % of control
[13]
  T/C: 93 % of control
[14]
  T/C: 91 % of control

## NC(COC(=O)NCCCl)C(=O)O (stereo not given)
[15]
  T/C: 88 % of control
[16]
  T/C: 93 % of control
[17]
  T/C: 111 % of control

## NC1(O)C(=O)NC(=O)NC1=O
dose: 60.0 mg/kg/injection, schedule: Q01DX005 (ip), vehicle: saline
  T/C: 101 % of control
dose: 120.0 mg/kg/injection, schedule: Q01DX005 (ip), vehicle: saline
  T/C: 93 % of control
dose: 240.0 mg/kg/injection, schedule: Q01DX005 (ip), vehicle: saline
  T/C: 88 % of control

## CC1(C)CC2(OC2c2ccccc2)C(=O)c2ccccc21 (stereo not given)
dose: 25.0 mg/kg/injection, schedule: Q01DX009 (ip), vehicle: Klucel (hydroxypropylcellulose) (HPC)
  T/C: 89 % of control
[15]
  T/C: 89 % of control
[16]
  T/C: 87 % of control
[18]
  T/C: 88 % of control

## COC(=O)C1(CC(=O)/C=C/c2ccccc2)NC(=S)NC(=O)C1C#N (stereo not given)
dose: 30.0 mg/kg/injection, schedule: Q01DX005 (ip), vehicle: Klucel (hydroxypropylcellulose) (HPC)
  T/C: 102 % of control
[2]
  T/C: 91 % of control and 92 % of control
[4]
  T/C: 92 % of control

## CC(C)(C)NC(=O)NS(=O)(=O)c1cccnc1Sc1ccccc1Cl
[2]
  T/C: 107 % of control
[3]
  T/C: 105 % of control
[4]
  T/C: 99 % of control

## CN(C)c1ccc(C(Nc2ccc(S(=O)(=O)Nc3ccccc3)cc2)c2ccc(N(C)C)cc2)cc1
[19]
  T/C: 105 % of control
[20]
  T/C: 110 % of control
[21]
  T/C: 105 % of control

## COC(=O)CCSC(=S)Nc1ccc(Br)cc1
[9]
  T/C: 100 % of control
[10]
  T/C: 100 % of control
[11]
  T/C: 102 % of control

## C[C@H](N)C(=O)N[C@@H]1[C@H]2C(=C(O)C[C@@H](O)[C@@H]2O)C(=O)O[C@]1(C)C(Cl)Cl
dose: 0.78 mg/kg/injection, schedule: Q01DX009 (ip), vehicle: Klucel (hydroxypropylcellulose) (HPC)
  T/C: 150 % of control and 167 % of control
dose: 1.56 mg/kg/injection, schedule: Q01DX009 (ip), vehicle: Klucel (hydroxypropylcellulose) (HPC)
  T/C: 161 % of control and 187 % of control and 205 % of control
dose: 3.12 mg/kg/injection, schedule: Q01DX009 (ip), vehicle: Klucel (hydroxypropylcellulose) (HPC)
  T/C: 117 % of control and 118 % of control

## CCOC(=O)c1c(C)[nH]c2c(-c3ccccc3)c3cc(Cl)ccc3nc12
[15]
  T/C: 103 % of control
[16]
  T/C: 109 % of control
[17]
  T/C: 104 % of control
[18]
  T/C: 99 % of control

## O=C1CNC(=O)N1CN1CCOCC1
dose: 25.0 mg/kg/injection, schedule: Q01DX005 (ip), vehicle: Klucel (hydroxypropylcellulose) (HPC)
  T/C: 107 % of control
[9]
  T/C: 107 % of control and 111 % of control
[10]
  T/C: 118 % of control

## CCOC(=O)CC1(O)CSC(=C(C(=O)OCC)C(=O)OCC)N1c1ccccc1 (stereo not given)
[5]
  T/C: 98 % of control
[6]
  T/C: 91 % of control
[7]
  T/C: 102 % of control

## CC(C(=O)O)C(Nc1ncnc2c1ncn2C1OC(CO)C(O)C1O)C(=O)O (stereo not given)
dose: 100.0 mg/kg/injection, schedule: Q04DX003 (ip), vehicle: saline
  T/C: 98 % of control
dose: 200.0 mg/kg/injection, schedule: Q04DX003 (ip), vehicle: saline
  T/C: 100 % of control
dose: 400.0 mg/kg/injection, schedule: Q04DX003 (ip), vehicle: saline
  T/C: 98 % of control

## O=C(NCc1ccco1)Nc1cccc2c(NC(=O)NCc3ccco3)cccc12
dose: 30.0 mg/kg/injection, schedule: Q01DX005 (ip), vehicle: saline with Tween-80
  T/C: 100 % of control
[12]
  T/C: 97 % of control
[13]
  T/C: 90 % of control
[14]
  T/C: 86 % of control

## O=S(=O)(F)/C=C/c1ccccc1
[8]
  T/C: 109 % of control
[1]
  T/C: 109 % of control

## O=[N+]([O-])c1ccc(/C=C/C=C\c2cccc(S(=O)(=O)F)c2)c(Cl)c1
[19]
  T/C: 90 % of control
[20]
  T/C: 90 % of control
[21]
  T/C: 90 % of control

## O=C1CN(c2cccc(C(F)(F)F)c2)C(=O)CN1/N=C/c1ccc[nH]1
[5]
  T/C: 101 % of control
[6]
  T/C: 100 % of control
[7]
  T/C: 99 % of control

## C[C@@](O)(/C=C/[C@H]1CC=CC(=O)O1)[C@@H](C[C@@H](O)\C=C/C=C\C=C\CO)OP(=O)(O)O
dose: 12.5 mg/kg/injection, schedule: Q01DX005 (ip), vehicle: other
  T/C: 150 % of control and 157 % of control
dose: 25.0 mg/kg/injection, schedule: Q01DX005 (ip), vehicle: other
  T/C: 174 % of control

From PubChem BioAssay AID330 (DTP/NCI, 2004)
